Results as given in patent US20230391768A2, “IMIDAZOPYRIDINE DERIVATIVES AND AZA-IMIDAZOPYRIDINE DERIVATIVES AS JANUS KINASE 2 INHIBITORS AND USES THEREOF” (Dana-Farber Cancer Institute, Inc., priority 2018, published 2023).

Tests used:
Test in all cases: KINOMEscan
Assay type in all cases: binding
Details in all cases: read-out: percent of control
[1] = target: ACVR2B (Homo sapiens (Human), UniProt Q13705)
Method: (§1) In vitro profiling of Compound I-2 (1 μM) was performed using the DiscoveRx KINOMEscan® platform.

[2] = target: ALK(L1196M) (Homo sapiens (Human), UniProt Q9UM73, L1196M)
Method: as §1

[3] = target: BRK (Homo sapiens (Human), UniProt Q13882)
Method: as §1

[4] = target: BRSK2 (Homo sapiens (Human), UniProt Q8IWQ3)
Method: as §1

[5] = target: CAMK4 (Homo sapiens (Human), UniProt Q16566)
Method: as §1

[6] = target: DRAK1 (Homo sapiens (Human), UniProt Q9UEE5)
Method: as §1

[7] = target: FGR (Homo sapiens (Human), UniProt P09769)
Method: as §1

[8] = target: FRK (Homo sapiens (Human), UniProt P42685)
Method: as §1

[9] = target: GRK4 (Homo sapiens (Human), UniProt P32298)
Method: as §1

[10] = target: GSK3A (Homo sapiens (Human), UniProt P49840)
Method: as §1

[11] = target: GSK3B (Homo sapiens (Human), UniProt P49841)
Method: as §1

[12] = target: IKK-alpha (Homo sapiens (Human), UniProt O15111)
Method: as §1

[13] = target: KIT(V559D,V654A) (Homo sapiens (Human), UniProt P10721, V559D/V654A)
Method: as §1

[14] = target: LATS2 (Homo sapiens (Human), UniProt Q9NRM7)
Method: as §1

[15] = target: LZK (Homo sapiens (Human), UniProt O43283)
Method: as §1

[16] = target: MAP4K4 (Homo sapiens (Human), UniProt O95819)
Method: as §1

[17] = target: MARK3 (Homo sapiens (Human), UniProt P27448)
Method: as §1

[18] = target: MET(Y1235D) (Homo sapiens (Human), UniProt P08581, Y1235D)
Chain of MET(Y1235D) (P08581 25-1390 Y1235D): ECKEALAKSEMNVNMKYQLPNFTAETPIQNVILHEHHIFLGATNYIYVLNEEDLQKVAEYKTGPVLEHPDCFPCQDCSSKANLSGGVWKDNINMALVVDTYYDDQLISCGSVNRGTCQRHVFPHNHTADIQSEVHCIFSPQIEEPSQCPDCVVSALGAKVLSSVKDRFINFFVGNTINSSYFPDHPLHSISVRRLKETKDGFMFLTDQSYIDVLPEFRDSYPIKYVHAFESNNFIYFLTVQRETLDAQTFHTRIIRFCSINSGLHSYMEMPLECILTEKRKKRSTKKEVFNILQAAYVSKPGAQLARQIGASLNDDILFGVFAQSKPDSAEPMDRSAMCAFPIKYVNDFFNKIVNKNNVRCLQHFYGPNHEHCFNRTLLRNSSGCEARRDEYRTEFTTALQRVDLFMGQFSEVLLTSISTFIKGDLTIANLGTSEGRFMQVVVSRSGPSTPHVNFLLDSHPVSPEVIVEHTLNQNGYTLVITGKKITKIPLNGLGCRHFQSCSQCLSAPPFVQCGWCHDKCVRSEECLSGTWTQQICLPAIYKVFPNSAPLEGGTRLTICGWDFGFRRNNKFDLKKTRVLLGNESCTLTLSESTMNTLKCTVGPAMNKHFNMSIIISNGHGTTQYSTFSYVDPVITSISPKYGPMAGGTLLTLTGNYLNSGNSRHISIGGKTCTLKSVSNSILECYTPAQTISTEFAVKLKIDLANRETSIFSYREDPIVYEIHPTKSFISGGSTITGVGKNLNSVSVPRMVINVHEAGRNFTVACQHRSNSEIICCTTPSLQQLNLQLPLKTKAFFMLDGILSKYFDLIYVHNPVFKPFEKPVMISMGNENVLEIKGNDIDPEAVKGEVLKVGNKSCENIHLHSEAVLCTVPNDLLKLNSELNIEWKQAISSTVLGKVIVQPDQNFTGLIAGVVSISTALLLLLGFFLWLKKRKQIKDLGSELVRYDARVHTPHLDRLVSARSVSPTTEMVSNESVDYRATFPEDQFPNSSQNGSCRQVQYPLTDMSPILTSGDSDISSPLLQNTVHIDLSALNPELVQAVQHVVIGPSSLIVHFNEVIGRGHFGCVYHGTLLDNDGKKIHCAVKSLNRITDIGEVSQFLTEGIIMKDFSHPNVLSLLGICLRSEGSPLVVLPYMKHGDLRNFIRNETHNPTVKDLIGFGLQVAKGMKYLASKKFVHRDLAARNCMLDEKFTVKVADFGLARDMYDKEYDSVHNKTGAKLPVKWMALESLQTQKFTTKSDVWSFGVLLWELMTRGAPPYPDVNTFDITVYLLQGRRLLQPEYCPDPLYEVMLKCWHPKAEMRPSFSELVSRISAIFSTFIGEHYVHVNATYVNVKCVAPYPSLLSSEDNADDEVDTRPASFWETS
Method: as §1

[19] = target: MLK3 (Homo sapiens (Human), UniProt Q16584)
Method: as §1

[20] = target: MST3 (Homo sapiens (Human), UniProt Q9Y6E0)
Method: as §1

[21] = target: NEK1 (Homo sapiens (Human), UniProt Q96PY6)
Method: as §1

[22] = target: NEK11 (Homo sapiens (Human), UniProt Q8NG66)
Method: as §1

[23] = target: NEK5 (Homo sapiens (Human), UniProt Q6P3R8)
Method: as §1

[24] = target: PAK2 (Homo sapiens (Human), UniProt Q13177)
Method: as §1

[25] = target: PDGFRB (Homo sapiens (Human), UniProt P09619)
Method: as §1

[26] = target: PIK3CA(1800L) (Homo sapiens (Human), UniProt P42336, I800L)
Method: as §1

[27] = target: PIM1 (Homo sapiens (Human), UniProt P11309)
Method: as §1

[28] = target: PIM2 (Homo sapiens (Human), UniProt Q9P1W9)
Method: as §1

[29] = target: PIP5K2C (Homo sapiens (Human), UniProt Q8TBX8)
Chain of PIP5K2C (Q8TBX8 whole entry): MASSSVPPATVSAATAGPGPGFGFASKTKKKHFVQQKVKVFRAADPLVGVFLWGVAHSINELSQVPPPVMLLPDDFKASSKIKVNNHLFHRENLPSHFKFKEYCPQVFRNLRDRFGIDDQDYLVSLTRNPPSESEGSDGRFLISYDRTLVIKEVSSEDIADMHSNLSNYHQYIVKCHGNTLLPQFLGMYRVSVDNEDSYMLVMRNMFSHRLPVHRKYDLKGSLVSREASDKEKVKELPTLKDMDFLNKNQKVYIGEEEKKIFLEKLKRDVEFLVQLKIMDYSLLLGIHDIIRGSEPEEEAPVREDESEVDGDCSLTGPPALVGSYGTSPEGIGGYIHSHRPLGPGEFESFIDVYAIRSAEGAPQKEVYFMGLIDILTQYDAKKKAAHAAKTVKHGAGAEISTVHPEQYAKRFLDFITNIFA
Method: as §1

[30] = target: PKAC-beta (Homo sapiens (Human), UniProt P22694)
Method: as §1

[31] = target: PRKR (Homo sapiens (Human), UniProt P19525)
Chain of PRKR (P19525 whole entry): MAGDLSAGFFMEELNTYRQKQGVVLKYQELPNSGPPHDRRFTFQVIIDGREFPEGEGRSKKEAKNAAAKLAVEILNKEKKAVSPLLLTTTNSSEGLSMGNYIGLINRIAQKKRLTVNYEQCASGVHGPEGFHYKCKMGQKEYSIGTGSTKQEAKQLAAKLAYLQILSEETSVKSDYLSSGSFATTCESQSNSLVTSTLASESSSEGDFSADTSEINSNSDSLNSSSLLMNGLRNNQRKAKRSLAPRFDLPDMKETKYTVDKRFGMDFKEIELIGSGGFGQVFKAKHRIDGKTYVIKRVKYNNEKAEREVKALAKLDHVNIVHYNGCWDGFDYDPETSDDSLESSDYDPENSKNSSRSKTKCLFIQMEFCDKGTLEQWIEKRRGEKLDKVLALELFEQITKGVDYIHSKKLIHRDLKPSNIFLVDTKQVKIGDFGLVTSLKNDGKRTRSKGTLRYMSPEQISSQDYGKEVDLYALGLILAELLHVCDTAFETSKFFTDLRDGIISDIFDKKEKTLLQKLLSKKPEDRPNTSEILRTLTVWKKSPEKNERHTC
Method: as §1

[32] = target: SBK1 (Homo sapiens (Human), UniProt Q52WX2)
Method: as §1

[33] = target: SNARK (Homo sapiens (Human), UniProt Q9H093)
Method: as §1

[34] = target: TAOK2 (Homo sapiens (Human), UniProt Q9UL54)
Method: as §1

[35] = target: TIE2 (Homo sapiens (Human), UniProt Q02763)
Method: as §1

[36] = target: TNK1 (Homo sapiens (Human), UniProt Q13470)
Chain of TNK1 (Q13470 whole entry): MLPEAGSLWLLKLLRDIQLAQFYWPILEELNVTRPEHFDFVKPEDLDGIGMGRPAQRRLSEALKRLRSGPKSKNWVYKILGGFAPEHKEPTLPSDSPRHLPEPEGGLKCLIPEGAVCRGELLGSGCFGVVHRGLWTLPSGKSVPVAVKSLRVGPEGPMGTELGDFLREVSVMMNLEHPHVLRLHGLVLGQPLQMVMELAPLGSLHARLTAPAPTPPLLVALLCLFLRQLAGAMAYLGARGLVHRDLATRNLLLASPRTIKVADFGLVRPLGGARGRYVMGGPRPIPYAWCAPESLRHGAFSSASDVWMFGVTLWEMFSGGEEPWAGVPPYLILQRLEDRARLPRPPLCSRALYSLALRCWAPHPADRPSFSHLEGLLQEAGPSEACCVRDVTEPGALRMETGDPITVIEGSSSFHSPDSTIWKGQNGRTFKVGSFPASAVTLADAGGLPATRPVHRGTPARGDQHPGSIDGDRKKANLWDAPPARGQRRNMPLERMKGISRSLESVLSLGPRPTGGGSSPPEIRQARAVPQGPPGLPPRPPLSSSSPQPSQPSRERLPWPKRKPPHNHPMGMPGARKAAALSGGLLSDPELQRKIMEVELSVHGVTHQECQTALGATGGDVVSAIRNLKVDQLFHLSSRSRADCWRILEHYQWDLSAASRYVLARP
Method: as §1

[37] = target: TRKC (Homo sapiens (Human), UniProt Q16288)
Method: as §1

[38] = target: TRPM6 (Homo sapiens (Human), UniProt Q9BX84)
Chain of TRPM6 (Q9BX84 whole entry): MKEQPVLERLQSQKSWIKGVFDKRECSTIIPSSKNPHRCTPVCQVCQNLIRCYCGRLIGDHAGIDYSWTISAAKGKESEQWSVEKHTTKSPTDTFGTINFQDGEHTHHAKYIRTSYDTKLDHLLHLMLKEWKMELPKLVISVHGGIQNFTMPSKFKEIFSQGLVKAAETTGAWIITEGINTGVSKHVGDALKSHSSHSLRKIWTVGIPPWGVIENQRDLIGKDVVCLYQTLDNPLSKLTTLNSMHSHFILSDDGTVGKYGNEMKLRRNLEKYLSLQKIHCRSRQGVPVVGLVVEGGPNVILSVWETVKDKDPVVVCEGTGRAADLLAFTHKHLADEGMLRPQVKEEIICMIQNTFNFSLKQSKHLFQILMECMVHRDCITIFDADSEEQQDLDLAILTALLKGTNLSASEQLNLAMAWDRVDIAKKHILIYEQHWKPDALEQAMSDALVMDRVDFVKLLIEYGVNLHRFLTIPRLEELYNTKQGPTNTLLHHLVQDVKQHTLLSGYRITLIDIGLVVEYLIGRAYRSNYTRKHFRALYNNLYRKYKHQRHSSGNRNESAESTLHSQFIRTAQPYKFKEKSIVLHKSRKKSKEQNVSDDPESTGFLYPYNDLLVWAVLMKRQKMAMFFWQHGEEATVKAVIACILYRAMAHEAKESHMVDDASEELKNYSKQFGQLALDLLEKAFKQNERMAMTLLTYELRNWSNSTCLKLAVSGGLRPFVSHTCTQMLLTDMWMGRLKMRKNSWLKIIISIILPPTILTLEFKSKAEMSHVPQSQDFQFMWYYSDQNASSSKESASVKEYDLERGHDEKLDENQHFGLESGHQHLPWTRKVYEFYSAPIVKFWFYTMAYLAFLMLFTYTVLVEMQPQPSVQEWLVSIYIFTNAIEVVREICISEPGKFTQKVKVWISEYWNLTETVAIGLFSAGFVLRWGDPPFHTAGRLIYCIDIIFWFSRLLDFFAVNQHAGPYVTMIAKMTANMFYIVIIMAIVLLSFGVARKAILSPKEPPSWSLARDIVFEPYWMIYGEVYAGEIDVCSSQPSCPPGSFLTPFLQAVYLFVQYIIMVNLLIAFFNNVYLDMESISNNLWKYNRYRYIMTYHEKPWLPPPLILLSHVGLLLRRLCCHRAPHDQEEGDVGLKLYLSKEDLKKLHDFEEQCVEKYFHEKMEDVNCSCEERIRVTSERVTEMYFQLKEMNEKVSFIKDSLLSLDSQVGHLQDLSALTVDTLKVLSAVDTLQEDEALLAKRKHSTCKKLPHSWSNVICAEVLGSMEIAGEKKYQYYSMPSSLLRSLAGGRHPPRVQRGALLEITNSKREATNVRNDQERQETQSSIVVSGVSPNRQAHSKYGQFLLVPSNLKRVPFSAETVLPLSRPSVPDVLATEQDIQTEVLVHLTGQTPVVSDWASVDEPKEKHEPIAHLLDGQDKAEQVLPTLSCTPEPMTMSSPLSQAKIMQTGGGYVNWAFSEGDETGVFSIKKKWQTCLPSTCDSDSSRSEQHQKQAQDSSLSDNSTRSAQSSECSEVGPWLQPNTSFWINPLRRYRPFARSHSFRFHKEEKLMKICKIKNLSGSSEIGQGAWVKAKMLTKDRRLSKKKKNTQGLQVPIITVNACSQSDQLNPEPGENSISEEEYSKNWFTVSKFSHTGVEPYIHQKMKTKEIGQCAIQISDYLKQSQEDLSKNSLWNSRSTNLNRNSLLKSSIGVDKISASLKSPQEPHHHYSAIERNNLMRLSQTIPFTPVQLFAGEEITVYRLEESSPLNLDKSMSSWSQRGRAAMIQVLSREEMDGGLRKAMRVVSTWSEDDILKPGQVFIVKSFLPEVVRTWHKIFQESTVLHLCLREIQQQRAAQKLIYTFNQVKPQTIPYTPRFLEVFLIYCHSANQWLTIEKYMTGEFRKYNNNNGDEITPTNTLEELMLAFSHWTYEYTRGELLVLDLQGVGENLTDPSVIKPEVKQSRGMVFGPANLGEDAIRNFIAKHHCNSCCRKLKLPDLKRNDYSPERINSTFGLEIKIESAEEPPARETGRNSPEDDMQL
Method: as §1

[39] = target: VPS34 (Homo sapiens (Human), UniProt Q8NEB9)
Method: as §1

In the case of CCN1CCN(Cc2cc(NC(=O)c3ccc(C)c(-c4ccc5nc(NC(=O)C6CC6)cn5c4)c3)cc(C(F)(F)F)c2)CC1 [Compound I-6, 3-(2-(cyclopropanecarboxamido)imidazo[1,2-a]pyridin-6-yl)-N-(3-((4-ethylpiperazin-1-yl)methyl)-5-(trifluoromethyl)phenyl)-4-methylbenzamide], the remaining binding at 1 µM [1] was 100%, the remaining binding at 1 µM [2] was 21% and the remaining binding at 1 µM [3] was 91%. For the same compound, the remaining binding at 1 µM [4] was 71%, the remaining binding at 1 µM [5] was 96% and the remaining binding at 1 µM [6] was 94%. It also gave a remaining binding at 1 µM [7] of 0%, a remaining binding at 1 µM [8] of 3.2% and a remaining binding at 1 µM [9] of 98%. For the same compound, the remaining binding at 1 µM [10] was 68%, the remaining binding at 1 µM [11] was 100% and the remaining binding at 1 µM [12] was 63%. The remaining binding at 1 µM [13] was 7.4%, the remaining binding at 1 µM [14] was 85% and the remaining binding at 1 µM [15] was 100%. For the same compound, the remaining binding at 1 µM [16] was 0.75%, the remaining binding at 1 µM [17] was 95% and the remaining binding at 1 µM [18] was 8.9%. It also gave a remaining binding at 1 µM [19] of 82%, a remaining binding at 1 µM [20] of 92% and a remaining binding at 1 µM [21] of 97%. For the same compound, the remaining binding at 1 µM [22] was 89%, the remaining binding at 1 µM [23] was 100% and the remaining binding at 1 µM [24] was 70%. For the same compound, the remaining binding at 1 µM [25] was 0%, the remaining binding at 1 µM [26] was 91% and the remaining binding at 1 µM [27] was 93%. For the same compound, the remaining binding at 1 µM [28] was 97%, the remaining binding at 1 µM [29] was 46% and the remaining binding at 1 µM [30] was 78%. The remaining binding at 1 µM [31] was 95%, the remaining binding at 1 µM [32] was 97% and the remaining binding at 1 µM [33] was 100%. It also gave a remaining binding at 1 µM [34] of 7.6%, a remaining binding at 1 µM [35] of 0.25% and a remaining binding at 1 µM [36] of 31%. It also gave a remaining binding at 1 µM [37] of 0.05%, a remaining binding at 1 µM [38] of 78% and a remaining binding at 1 µM [39] of 93%.

CCN1CCN(Cc2cc(NC(=O)c3ccc(C)c(-c4ccc5nc(NC(=O)C6CC6)cn5n4)c3)cc(C(F)(F)F)c2)CC1 [Compound I-2, 3-(2-(cyclopropanecarboxamido)imidazo[1,2-b]pyridazin-6-yl)-N-(3-((4-ethylpiperazin-1-yl)methyl)-5-(trifluoromethyl)phenyl)-4-methylbenzamide] showed a remaining binding at 1 µM [1] of 96%, a remaining binding at 1 µM [2] of 9.9% and a remaining binding at 1 µM [3] of 100%. For the same compound, the remaining binding at 1 µM [4] was 93%, the remaining binding at 1 µM [5] was 94% and the remaining binding at 1 µM [6] was 100%. The remaining binding at 1 µM [7] was 0.15%, the remaining binding at 1 µM [8] was 3.9% and the remaining binding at 1 µM [9] was 81%. It also gave a remaining binding at 1 µM [10] of 43%, a remaining binding at 1 µM [11] of 93% and a remaining binding at 1 µM [12] of 53%. It also gave a remaining binding at 1 µM [13] of 6.1%, a remaining binding at 1 µM [14] of 79% and a remaining binding at 1 µM [15] of 48%. For the same compound, the remaining binding at 1 µM [16] was 0.15%, the remaining binding at 1 µM [17] was 94% and the remaining binding at 1 µM [18] was 8.7%. For the same compound, the remaining binding at 1 µM [19] was 76%, the remaining binding at 1 µM [20] was 85% and the remaining binding at 1 µM [21] was 95%. For the same compound, the remaining binding at 1 µM [22] was 65%, the remaining binding at 1 µM [23] was 89% and the remaining binding at 1 µM [24] was 93%. It also gave a remaining binding at 1 µM [25] of 0%, a remaining binding at 1 µM [26] of 100% and a remaining binding at 1 µM [27] of 90%. The remaining binding at 1 µM [28] was 96%, the remaining binding at 1 µM [29] was 5.7% and the remaining binding at 1 µM [30] was 92%. For the same compound, the remaining binding at 1 µM [31] was 97%, the remaining binding at 1 µM [32] was 99% and the remaining binding at 1 µM [33] was 100%. The remaining binding at 1 µM [34] was 8.6%, the remaining binding at 1 µM [35] was 0.1% and the remaining binding at 1 µM [36] was 63%. The remaining binding at 1 µM [37] was 0.05%, the remaining binding at 1 µM [38] was 93% and the remaining binding at 1 µM [39] was 91%.
